Results as given in PMC6544370 (Nature, 2019).

Key:
[1] = target: T1, STING (Stimulator of Interferon Genes) (Mus musculus, UniProt Q3TBT3); experiment: native PAGE gel shift; type: binding; conditions: pH 7.5, 60 mM KCl, 5 mM Mg(OAc)2; labelled compound; 4-100 μM protein
T1 sequence (Q3TBT3 139-378 limits assumed): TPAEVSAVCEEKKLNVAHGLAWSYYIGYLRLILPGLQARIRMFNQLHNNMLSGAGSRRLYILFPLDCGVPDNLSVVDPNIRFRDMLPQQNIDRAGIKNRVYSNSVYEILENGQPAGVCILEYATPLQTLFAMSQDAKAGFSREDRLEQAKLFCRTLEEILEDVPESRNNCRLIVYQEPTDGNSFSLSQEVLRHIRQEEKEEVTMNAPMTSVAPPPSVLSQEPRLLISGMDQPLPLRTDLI

Ec-CdnD02 (CD-NTase038) = Ec-CdnD02 (CD-NTase038) (Enterobacter hormaechei, UniProt P0DSP4); conditions: with GTP; pH 9.4, 5 mM Mg(OAc)2, 37 °C; product cAAG
Rm-CdnE = target: T2, Rm-CdnE (Rhodothermus marinus, UniProt G2SLH8); experiment: X-ray crystal structure; type: binding; conditions: with Upnpp and MgCl2; nonhydrolyzable substrate analogue
T2 sequence (G2SLH8 1-288): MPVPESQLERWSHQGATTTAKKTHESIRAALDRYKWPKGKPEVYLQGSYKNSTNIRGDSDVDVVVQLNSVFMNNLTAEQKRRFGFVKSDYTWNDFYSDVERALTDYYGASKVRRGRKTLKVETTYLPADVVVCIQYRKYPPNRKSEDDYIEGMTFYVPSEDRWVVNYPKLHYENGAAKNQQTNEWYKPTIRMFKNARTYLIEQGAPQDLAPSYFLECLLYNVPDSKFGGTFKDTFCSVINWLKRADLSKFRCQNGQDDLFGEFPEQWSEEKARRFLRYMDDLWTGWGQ

Em-CdnE = target: T3, Em-CdnE (Elizabethkingia meningoseptica, UniProt P0DSP2); experiment: X-ray crystal structure; type: binding
T3 sequence (P0DSP2 1-292): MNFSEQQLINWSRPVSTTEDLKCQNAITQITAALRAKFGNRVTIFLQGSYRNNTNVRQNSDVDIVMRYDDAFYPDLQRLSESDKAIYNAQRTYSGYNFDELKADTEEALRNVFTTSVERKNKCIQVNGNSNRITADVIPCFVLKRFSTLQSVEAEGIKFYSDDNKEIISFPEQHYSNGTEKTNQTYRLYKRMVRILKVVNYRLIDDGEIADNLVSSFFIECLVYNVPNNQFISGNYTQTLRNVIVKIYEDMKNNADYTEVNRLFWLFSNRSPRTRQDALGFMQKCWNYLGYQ

Chain of Ec-CdnD02 (CD-NTase038) (P0DSP4 whole entry): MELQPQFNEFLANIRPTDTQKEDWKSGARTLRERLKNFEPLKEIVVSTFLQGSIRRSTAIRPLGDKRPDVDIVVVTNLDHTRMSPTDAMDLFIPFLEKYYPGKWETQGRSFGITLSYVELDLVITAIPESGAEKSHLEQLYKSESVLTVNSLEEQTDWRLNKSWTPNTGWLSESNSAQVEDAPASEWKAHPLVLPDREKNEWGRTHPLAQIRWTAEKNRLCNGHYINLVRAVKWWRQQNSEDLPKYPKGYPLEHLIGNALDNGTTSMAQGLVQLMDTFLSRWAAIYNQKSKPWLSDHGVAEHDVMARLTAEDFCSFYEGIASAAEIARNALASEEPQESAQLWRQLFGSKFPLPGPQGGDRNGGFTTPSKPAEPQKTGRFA

Compound: Nc1nc2c(ncn2[C@@H]2O[C@@H]3COP(=O)(O)O[C@H]4[C@@H](O)[C@H](n5cnc6c(N)ncnc65)O[C@@H]4COP(=O)(O)O[C@H]3[C@H]2O)c(=O)[nH]1 [3′3′ cGAMP]
- native PAGE gel shift [1]: STING bound to all four cyclic dipurine molecules with high affinity

Compound: Nc1ncnc2c1ncn2[C@@H]1O[C@H](COP(=O)(O)OP(=O)(O)OP(=O)(O)O)[C@@H](O)[C@H]1O [ATP]
- radiolabelled NTP, silica TLC (Ec-CdnD02 (CD-NTase038)): ATP and GTP were necessary and sufficient for product formation

Compound: Nc1ncnc2c1ncn2[C@@H]1O[C@H](COP(=O)(O)CP(=O)(O)OP(=O)(O)O)[C@@H](O)[C@H]1O [Apcpp]
- X-ray crystal structure (Rm-CdnE): structure of Rm-CdnE in complex with nonhydrolyzable ATP and UTP
- X-ray crystal structure (Em-CdnE; with GTP and Mg2+, nonhydrolyzable substrate analogue): Crystal structure of Em-CdnE in complex with GTP and nonhydrolyzable ATP

Compound: Nc1nc2c(ncn2[C@@H]2O[C@H](COP(=O)(O)OP(=O)(O)OP(=O)(O)O)[C@@H](O)[C@H]2O)c(=O)[nH]1 [GTP]
- X-ray crystal structure (Em-CdnE; with Apcpp and Mg2+): Crystal structure of Em-CdnE in complex with GTP and nonhydrolyzable ATP

Compound: Nc1nc2c(ncn2[C@@H]2O[C@@H]3COP(=O)(O)O[C@H]4[C@@H](O)[C@H](n5cnc6c(=O)[nH]c(N)nc65)O[C@@H]4COP(=O)(O)O[C@H]3[C@H]2O)c(=O)[nH]1 [c-di-GMP]
- native PAGE gel shift [1]: STING bound to all four cyclic dipurine molecules with high affinity
